Measured values taken from ChEMBL document CHEMBL5226326, “Discovery of 1-Benzoyl 4-Phenoxypiperidines as Small-Molecule Inhibitors of the β-Catenin/B-Cell Lymphoma 9 Protein-Protein Interaction” (J Med Chem, 2021).

Assays:
[1] = Inhibition of full length beta-catenin D145A mutant/N-terminal biotinylated human BCL9 HD2 (350 to 375 residues) protein-protein interaction in human SW480 cells incubated for 1 hr by Alphascreen assay; type: cell-based
[2] = Inhibition of Wnt/beta-catenin transactivation signalling in human SW480 cells transfected with renilla luciferase and TOPFlash reporter gene incubated for 24 hrs by dual-luciferase assay; type: cell-based; details: SW480, 24 h
MDA-MB-468 = assay: Antiproliferative activity against beta-catenin signalling overexpressing human MDA-MB-468 cells assessed as reduction in cell growth incubated for 72 hrs by MTS assay; type: functional, cell-based; details: MDA-MB-468, 72 h
[3] = target: T1, beta-catenin-B-cell lymphoma 9 protein complex (Homo sapiens, UniProt P35222); assay: Inhibition of full length beta-catenin (1 to 781 residues) (unknown origin) expressed in Escherichia coli BL21 (DE3)/N-terminal biotinylated human BCL9 HD2 (350 to 375 residues) protein-protein interaction incubated for 1 hr by Alphascreen assay
T1 sequence (P35222 whole entry): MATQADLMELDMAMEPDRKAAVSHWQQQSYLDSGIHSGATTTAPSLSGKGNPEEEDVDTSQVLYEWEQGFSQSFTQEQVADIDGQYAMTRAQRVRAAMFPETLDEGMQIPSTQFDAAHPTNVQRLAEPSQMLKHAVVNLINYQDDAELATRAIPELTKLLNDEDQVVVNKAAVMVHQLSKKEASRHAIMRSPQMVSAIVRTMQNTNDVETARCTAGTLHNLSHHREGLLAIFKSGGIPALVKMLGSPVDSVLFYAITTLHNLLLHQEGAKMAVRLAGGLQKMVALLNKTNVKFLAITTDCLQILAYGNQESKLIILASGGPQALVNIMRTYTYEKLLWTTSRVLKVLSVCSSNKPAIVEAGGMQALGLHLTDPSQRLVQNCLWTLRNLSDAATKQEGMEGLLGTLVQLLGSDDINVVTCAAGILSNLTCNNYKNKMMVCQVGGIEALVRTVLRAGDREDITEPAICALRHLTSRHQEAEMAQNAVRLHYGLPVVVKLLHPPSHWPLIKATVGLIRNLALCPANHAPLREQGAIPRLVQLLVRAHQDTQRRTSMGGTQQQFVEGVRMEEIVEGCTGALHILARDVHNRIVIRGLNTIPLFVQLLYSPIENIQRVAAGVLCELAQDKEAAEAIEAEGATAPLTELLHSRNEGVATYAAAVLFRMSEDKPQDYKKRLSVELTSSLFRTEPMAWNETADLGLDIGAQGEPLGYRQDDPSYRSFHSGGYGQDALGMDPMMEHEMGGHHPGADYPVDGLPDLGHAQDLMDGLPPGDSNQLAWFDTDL
T1 sequence (O00512 whole entry): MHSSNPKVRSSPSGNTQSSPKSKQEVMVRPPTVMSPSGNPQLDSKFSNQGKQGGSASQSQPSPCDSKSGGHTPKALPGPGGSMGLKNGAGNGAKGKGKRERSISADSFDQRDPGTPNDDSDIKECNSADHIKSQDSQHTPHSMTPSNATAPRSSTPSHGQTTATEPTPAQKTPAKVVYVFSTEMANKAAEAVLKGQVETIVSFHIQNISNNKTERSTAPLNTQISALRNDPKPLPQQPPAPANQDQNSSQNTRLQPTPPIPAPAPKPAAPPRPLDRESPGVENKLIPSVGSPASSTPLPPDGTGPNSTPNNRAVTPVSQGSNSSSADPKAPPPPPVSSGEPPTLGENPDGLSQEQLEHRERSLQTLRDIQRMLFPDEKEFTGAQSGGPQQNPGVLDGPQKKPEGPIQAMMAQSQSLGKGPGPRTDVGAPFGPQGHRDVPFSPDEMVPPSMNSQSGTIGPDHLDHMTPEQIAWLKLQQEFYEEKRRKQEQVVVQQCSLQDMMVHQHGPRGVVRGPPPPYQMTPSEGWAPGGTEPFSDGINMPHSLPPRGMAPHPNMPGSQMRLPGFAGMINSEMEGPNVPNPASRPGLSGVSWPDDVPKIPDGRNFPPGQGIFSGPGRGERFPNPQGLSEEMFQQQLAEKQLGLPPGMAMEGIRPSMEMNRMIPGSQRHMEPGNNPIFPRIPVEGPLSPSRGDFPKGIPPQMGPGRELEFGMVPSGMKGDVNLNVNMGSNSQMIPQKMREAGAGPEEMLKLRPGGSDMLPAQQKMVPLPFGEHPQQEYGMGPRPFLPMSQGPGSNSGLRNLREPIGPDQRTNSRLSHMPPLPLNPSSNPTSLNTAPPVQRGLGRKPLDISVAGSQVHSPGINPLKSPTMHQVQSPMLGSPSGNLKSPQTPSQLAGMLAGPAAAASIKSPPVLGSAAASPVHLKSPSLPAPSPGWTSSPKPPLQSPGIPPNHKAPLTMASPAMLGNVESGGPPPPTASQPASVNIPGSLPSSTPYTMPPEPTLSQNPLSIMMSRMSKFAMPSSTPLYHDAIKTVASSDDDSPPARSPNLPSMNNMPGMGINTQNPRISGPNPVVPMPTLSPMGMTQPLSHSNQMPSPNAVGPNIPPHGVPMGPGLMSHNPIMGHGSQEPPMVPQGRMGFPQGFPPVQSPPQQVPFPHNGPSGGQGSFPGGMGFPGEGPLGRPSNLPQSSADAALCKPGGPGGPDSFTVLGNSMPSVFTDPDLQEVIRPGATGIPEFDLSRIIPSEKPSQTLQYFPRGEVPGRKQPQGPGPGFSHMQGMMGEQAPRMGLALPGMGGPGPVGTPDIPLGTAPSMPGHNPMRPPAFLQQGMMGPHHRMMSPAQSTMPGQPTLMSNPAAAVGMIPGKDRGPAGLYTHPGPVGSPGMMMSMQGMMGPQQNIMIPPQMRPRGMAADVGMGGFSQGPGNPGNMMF

Which Ki [1] does the source give for `CC(C)(C)C1CCC(c2cc(C(=O)N3CCC(Oc4cc(N5CCNCC5)ccc4C#N)CC3)ccc2O[C@H]2CCNC2)CC1.Cl.Cl` (mixture of isomers; cis) here?
The Ki was 6.9 µM.

And the IC50 [2]?
The IC50 was 2.6 µM.

And the IC50 (MDA-MB-468)?
Its IC50 is 3.9 µM.

What about the IC50 [3] of the same compound?
Its IC50 is 1.2 µM.
